# Legend:
# [1] = tested on: herpesviruses (HSV, VZV, HCMV); assay: Anti-herpesvirus activity overall; assay type: cell-based; details: HEL cells
# [2] = tested on: HSV-1 (Kos); details: read-out: EC50 (HEL) HSV-1 (Kos); HEL cells; ref Krecmerova et al. (Ref. [7]); cited from earlier work
# [3] = tested on: HSV-2 (G); details: read-out: EC50 (HEL) HSV-2 (G); HEL cells; ref Krecmerova et al. (Ref. [7]); cited from earlier work
# [4] = tested on: VZV TK+ (Oka); details: read-out: EC50 (HEL) VZV TK+ (Oka); HEL cells; ref Krecmerova et al. (Ref. [7]); cited from earlier work
# [5] = tested on: VZV TK− (07-1); details: read-out: EC50 (HEL) VZV TK− (07-1); HEL cells; ref Krecmerova et al. (Ref. [7]); cited from earlier work
# [6] = tested on: HCMV (AD-169); details: read-out: EC50 (HEL) HCMV (AD-169); HEL cells; ref Krecmerova et al. (Ref. [7]); cited from earlier work
# [7] = tested on: HCMV (Davis); details: read-out: EC50 (HEL) HCMV (Davis); HEL cells; ref Krecmerova et al. (Ref. [7]); cited from earlier work
# [8] = tested on: Vaccinia virus; details: read-out: EC50 (HEL) Vaccinia virus; HEL cells; ref Krecmerova et al. (Ref. [7]); cited from earlier work
# [9] = tested on: human embryonic lung (HEL) cells; details: ref Krecmerova et al. (Ref. [7]); cited from earlier work
# [10] = tested on: human embryonic lung (HEL) cells; details: read-out: Cytotoxicity CC50, ref Krecmerova et al. (Ref. [7]); cited from earlier work
compound,measurement,setting,value
"Nc1ncn(CCOCP(=O)(O)O)c(=O)n1 [Compound 6, 1-[2-(phosphonomethoxy)ethyl]-5-azacytosine]",Anti-herpesvirus activity (in words),[1],marginal anti-herpesvirus activity
same,EC50,[2],39 µM
same,EC50,[3],103 µM
same,EC50,[4],100 µM
same,EC50,[5],40 µM
same,EC50,[6],195 µM
same,EC50,[7],147 µM
same,EC50,[8],> 398 µM
same,Cytotoxicity MCC,[9],>398 µM
same,CC50,[10],> 200 µM

# Reference: PMC7126465 (Bioorganic & Medicinal Chemistry, 2017)
